Experimental data reported in patent US4100346A, “Certain 7(o-amino-methyl- or methylaminomethylphenyl- or cyclohexadienyl- or thienylacetamide)-3[1-carboxymethyl-(or ethyl- or propyl-)-tetrazol-5-ylthiomethyl]-3-cephem-4-carboxylic acids” (Bristol-Myers Company, priority 1976, dated 1978).
≈ marks a conversion by molar mass, not a printed value. Read-outs that look alike come from different tables or passages of the source.

Legend:
[1] = tested on: Alcaligenes sp.; assay: Growth inhibitory activity, antibiotic dilution technique
[2] = tested on: Enterobacter aerogenes; assay: Minimum growth inhibitory and bactericidal concentrations for Enterobacteriaceae; assay type: cell-based; details: Klebsiella aerogenes, inoculum 10^4 cells; for MBC: read-out: MBC, minimum bactericidal concentration; for MIC: read-out: MIC, Minimum growth inhibitory concentration
Description: (§1) Miscellaneous. Methods for determining bactericidal activity and susceptibility to cell-free β-lactamase were those previously used; Leitner et al., BL-S640, A Cephalosporin With a Broad Spectrum of Antibacterial Activity: Properties in vitro, Antimicrob. Agents Chemother. 7:298-305 (1975).
(§2) *MIC, Minimum growth inhibitory concentration; MBC, minimum bactericidal
(§3) concentration; expressed as micrograms per milliliter. The inoculum was […]

[3] = tested on: Proteus mirabilis; assay: as above; assay type: cell-based; details: for MBC: read-out: MBC, minimum bactericidal concentration; for MIC: read-out: MIC, Minimum growth inhibitory concentration
Description: as §1, §2, §3

[4] = tested on: Klebsiella pneumoniae; assay: as above; assay type: cell-based; details: for MBC: read-out: MBC, minimum bactericidal concentration; for MIC: read-out: MIC, Minimum growth inhibitory concentration
Description: as §1, §2, §3

[5] = tested on: Proteus vulgaris; assay: as above; assay type: cell-based; details: Proteus vulgaris, inoculum 10^4 cells; for MBC: read-out: MBC, minimum bactericidal concentration; for MIC: read-out: MIC, Minimum growth inhibitory concentration
Description: as §1, §2, §3

[6] = tested on: Proteus rettgeri; assay: as above; assay type: cell-based; details: Providencia rettgeri, inoculum 10^4 cells; for MBC: read-out: MBC, minimum bactericidal concentration; for MIC: read-out: MIC, Minimum growth inhibitory concentration
Description: as §1, §2, §3

[7] = tested on: Escherichia coli; assay: as above; assay type: cell-based; details: for MBC: read-out: MBC, minimum bactericidal concentration; for MIC: read-out: MIC, Minimum growth inhibitory concentration
Description: as §1, §2, §3

[8] = tested on: Enterobacter cloacae; assay: as above; assay type: cell-based; details: for MBC: read-out: MBC, minimum bactericidal concentration; for MIC: read-out: MIC, Minimum growth inhibitory concentration
Description: as §1, §2, §3

[9] = tested on: Serratia marcescens; assay: Growth inhibitory activity, antibiotic dilution technique; details: read-out: Minimum inhibitory concentration
[10] = tested on: Proteus vulgaris; assay: Effect of inoculum size on susceptibility of Enterobacteriaceae
[11] = tested on: Pasteurella multocida; assay: Growth inhibitory activity, antibiotic dilution technique; details: read-out: Minimum inhibitory concentration
[12] = tested on: Erwinia sp.; assay: as above; details: read-out: Minimum inhibitory concentration
[13] = tested on: Proteus mirabilis; assay: Effect of inoculum size on susceptibility of Enterobacteriaceae
[14] = Enterobacter aerogenes strain 1
[15] = Enterobacter aerogenes strain 2
[16] = Enterobacter aerogenes strain 3
[17] = Proteus mirabilis strain 1, inoculum 10^4 cells
[18] = Proteus mirabilis strain 2, inoculum 10^4 cells
[19] = Proteus mirabilis strain 3, inoculum 10^4 cells
[20] = Proteus mirabilis strain 4, inoculum 10^4 cells
[21] = Proteus mirabilis strain 5, inoculum 10^4 cells
[22] = Klebsiella pneumoniae strain 1, inoculum 10^4 cells
[23] = Klebsiella pneumoniae strain 2, inoculum 10^4 cells
[24] = Klebsiella pneumoniae strain 3, inoculum 10^4 cells
[25] = Klebsiella pneumoniae strain 4, inoculum 10^4 cells
[26] = Klebsiella pneumoniae strain 5, inoculum 10^4 cells
[27] = Klebsiella pneumoniae strain 6, inoculum 10^4 cells
[28] = Escherichia coli strain 1, inoculum 10^4 cells
[29] = Escherichia coli strain 2, inoculum 10^4 cells
[30] = Escherichia coli strain 3, inoculum 10^4 cells
[31] = Escherichia coli strain 4, inoculum 10^4 cells
[32] = Escherichia coli strain 5, inoculum 10^4 cells
[33] = Escherichia coli strain 6, inoculum 10^4 cells
[34] = Enterobacter cloacae strain 3, inoculum 10^4 cells
[35] = Enterobacter cloacae strain 4, inoculum 10^4 cells
[36] = Enterobacter cloacae strain 8, inoculum 10^4 cells

Structure (SMILES): O=C(Cc1cccs1)N[C@@H]1C(=O)N2C(C(=O)[O-])=C(C[n+]3ccccc3)CS[C@H]12 [Cephaloridine]
- MIC ([1]; read-out: Minimum inhibitory concentration, Alcaligenes sp., 2 strains, geometric mean when applicable): > 125 µg/mL
- MIC ([1]; read-out: Minimum inhibitory concentration, Alcaligenes sp., 4 strains, geometric mean when applicable): > 125 µg/mL
- MIC ([1]; read-out: Minimum inhibitory concentration, Alcaligenes sp., 5 strains, geometric mean when applicable): 6.1 µg/mL (≈ 14.7 µM)
- MBC [2, 14]: > 250 µg/mL
- MIC [2, 14]: > 250 µg/mL
- MBC [2, 15]: > 250 µg/mL
- MIC [2, 15]: 250 µg/mL (≈ 602 µM)
- MBC [2, 16]: 250 µg/mL (≈ 602 µM)
- MIC [2, 16]: 250 µg/mL (≈ 602 µM)
- MBC [3, 17]: 16 µg/mL (≈ 38.5 µM)
- MIC [3, 17]: 8 µg/mL (≈ 19.3 µM)
- MBC [3, 18]: 8 µg/mL (≈ 19.3 µM)
- MIC [3, 18]: 8 µg/mL (≈ 19.3 µM)
- MBC [3, 19]: 8 µg/mL (≈ 19.3 µM)
- MIC [3, 19]: 8 µg/mL (≈ 19.3 µM)
- MBC [3, 20]: 8 µg/mL (≈ 19.3 µM)
- MIC [3, 20]: 8 µg/mL (≈ 19.3 µM)
- MBC [3, 21]: 8 µg/mL (≈ 19.3 µM)
- MIC [3, 21]: 4 µg/mL (≈ 9.63 µM)
- MBC [4, 22]: 4 µg/mL (≈ 9.63 µM)
- MIC [4, 22]: 2 µg/mL (≈ 4.81 µM)
- MBC [4, 23]: 4 µg/mL (≈ 9.63 µM)
- MIC [4, 23]: 4 µg/mL (≈ 9.63 µM)
- MBC [4, 24]: 2 µg/mL (≈ 4.81 µM)
- MIC [4, 24]: 2 µg/mL (≈ 4.81 µM)
- MBC [4, 25]: 4 µg/mL (≈ 9.63 µM)
- MIC [4, 25]: 4 µg/mL (≈ 9.63 µM)
- MBC [4, 26]: 8 µg/mL (≈ 19.3 µM)
- MIC [4, 26]: 8 µg/mL (≈ 19.3 µM)
- MBC [4, 27]: 2 µg/mL (≈ 4.81 µM)
- MIC [4, 27]: 2 µg/mL (≈ 4.81 µM)
- MBC ([5]; Proteus vulgaris strain 1): 8 µg/mL (≈ 19.3 µM)
- MIC ([5]; Proteus vulgaris strain 1): 8 µg/mL (≈ 19.3 µM)
- MBC ([5]; Proteus vulgaris strain 2): 16 µg/mL (≈ 38.5 µM)
- MIC ([5]; Proteus vulgaris strain 2): 8 µg/mL (≈ 19.3 µM)
- MBC ([5]; Proteus vulgaris strain 4): 16 µg/mL (≈ 38.5 µM)
- MIC ([5]; Proteus vulgaris strain 4): 8 µg/mL (≈ 19.3 µM)
- MBC ([6]; Proteus rettgeri strain 2): 0.5 µg/mL (≈ 1.2 µM)
- MIC ([6]; Proteus rettgeri strain 2): 0.5 µg/mL (≈ 1.2 µM)
- MBC ([6]; Proteus rettgeri strain 3): > 250 µg/mL
- MIC ([6]; Proteus rettgeri strain 3): 32 µg/mL (≈ 77 µM)
- MBC [7, 28]: 4 µg/mL (≈ 9.63 µM)
- MIC [7, 28]: 4 µg/mL (≈ 9.63 µM)
- MBC [7, 29]: 16 µg/mL (≈ 38.5 µM)
- MIC [7, 29]: 16 µg/mL (≈ 38.5 µM)
- MBC [7, 30]: 2 µg/mL (≈ 4.81 µM)
- MIC [7, 30]: 2 µg/mL (≈ 4.81 µM)
- MBC [7, 31]: 4 µg/mL (≈ 9.63 µM)
- MIC [7, 31]: 4 µg/mL (≈ 9.63 µM)
- MBC [7, 32]: 4 µg/mL (≈ 9.63 µM)
- MIC [7, 32]: 4 µg/mL (≈ 9.63 µM)
- MBC [7, 33]: 8 µg/mL (≈ 19.3 µM)
- MIC [7, 33]: 4 µg/mL (≈ 9.63 µM)
- MBC [8, 34]: 16 µg/mL (≈ 38.5 µM)
- MIC [8, 34]: 16 µg/mL (≈ 38.5 µM)
- MBC [8, 35]: > 250 µg/mL
- MIC [8, 35]: > 250 µg/mL
- MBC [8, 36]: > 250 µg/mL
- MIC [8, 36]: > 250 µg/mL
- MIC [9]: > 125 µg/mL
- MIC ([10]; read-out: Minimum Inhibitory Concentration, Proteus vulgaris strain 1, A, Inoculum of 10^2 organisms): 4 µg/mL (≈ 9.63 µM)
- MIC ([10]; read-out: Minimum Inhibitory Concentration, Proteus vulgaris strain 1, B, Inoculum of 10^6 organisms): 16 µg/mL (≈ 38.5 µM)
- MIC ([10]; read-out: Minimum Inhibitory Concentration, Proteus vulgaris strain 2, A, Inoculum of 10^2 organisms): 8 µg/mL (≈ 19.3 µM)
- MIC ([10]; read-out: Minimum Inhibitory Concentration, Proteus vulgaris strain 2, B, Inoculum of 10^6 organisms): 250 µg/mL (≈ 602 µM)
- MIC ([10]; read-out: Minimum Inhibitory Concentration, Proteus vulgaris strain 4, A, Inoculum of 10^2 organisms): 8 µg/mL (≈ 19.3 µM)
- MIC ([10]; read-out: Minimum Inhibitory Concentration, Proteus vulgaris strain 4, B, Inoculum of 10^6 organisms): 16 µg/mL (≈ 38.5 µM)
- MIC [11]: 0.5 µg/mL (≈ 1.2 µM)
- MIC [12]: 2 µg/mL (≈ 4.81 µM)
- MIC ([13]; read-out: Minimum Inhibitory Concentration, Proteus mirabilis strain 1, A, Inoculum of 10^2 organisms): 4 µg/mL (≈ 9.63 µM)
- MIC ([13]; read-out: Minimum Inhibitory Concentration, Proteus mirabilis strain 1, B, Inoculum of 10^6 organisms): 16 µg/mL (≈ 38.5 µM)
- MIC ([13]; read-out: Minimum Inhibitory Concentration, Proteus mirabilis strain 2, A, Inoculum of 10^2 organisms): 8 µg/mL (≈ 19.3 µM)
- MIC ([13]; read-out: Minimum Inhibitory Concentration, Proteus mirabilis strain 2, B, Inoculum of 10^6 organisms): 16 µg/mL (≈ 38.5 µM)
- MIC ([13]; read-out: Minimum Inhibitory Concentration, Proteus mirabilis strain 3, A, Inoculum of 10^2 organisms): 8 µg/mL (≈ 19.3 µM)
- MIC ([13]; read-out: Minimum Inhibitory Concentration, Proteus mirabilis strain 3, B, Inoculum of 10^6 organisms): 32 µg/mL (≈ 77 µM)
- MIC ([13]; read-out: Minimum Inhibitory Concentration, Proteus mirabilis strain 4, A, Inoculum of 10^2 organisms): 4 µg/mL (≈ 9.63 µM)
- MIC ([13]; read-out: Minimum Inhibitory Concentration, Proteus mirabilis strain 4, B, Inoculum of 10^6 organisms): 32 µg/mL (≈ 77 µM)
- MIC ([13]; read-out: Minimum Inhibitory Concentration, Proteus mirabilis strain 5, A, Inoculum of 10^2 organisms): 4 µg/mL (≈ 9.63 µM)
- MIC ([13]; read-out: Minimum Inhibitory Concentration, Proteus mirabilis strain 5, B, Inoculum of 10^6 organisms): 16 µg/mL (≈ 38.5 µM)
